{"source": "paper PMC9203742", "about": "(Nature Communications, 2022)", "key": {"mGlu1(N264H) mutant": {"target": "T1, mGlu1(N264H) mutant (Rattus norvegicus, UniProt P23385, N264H)", "T1 construct": "expressed in transfected cells; host or cells: HEK293", "T1 sequence (P23385 19-1199 N264H)": "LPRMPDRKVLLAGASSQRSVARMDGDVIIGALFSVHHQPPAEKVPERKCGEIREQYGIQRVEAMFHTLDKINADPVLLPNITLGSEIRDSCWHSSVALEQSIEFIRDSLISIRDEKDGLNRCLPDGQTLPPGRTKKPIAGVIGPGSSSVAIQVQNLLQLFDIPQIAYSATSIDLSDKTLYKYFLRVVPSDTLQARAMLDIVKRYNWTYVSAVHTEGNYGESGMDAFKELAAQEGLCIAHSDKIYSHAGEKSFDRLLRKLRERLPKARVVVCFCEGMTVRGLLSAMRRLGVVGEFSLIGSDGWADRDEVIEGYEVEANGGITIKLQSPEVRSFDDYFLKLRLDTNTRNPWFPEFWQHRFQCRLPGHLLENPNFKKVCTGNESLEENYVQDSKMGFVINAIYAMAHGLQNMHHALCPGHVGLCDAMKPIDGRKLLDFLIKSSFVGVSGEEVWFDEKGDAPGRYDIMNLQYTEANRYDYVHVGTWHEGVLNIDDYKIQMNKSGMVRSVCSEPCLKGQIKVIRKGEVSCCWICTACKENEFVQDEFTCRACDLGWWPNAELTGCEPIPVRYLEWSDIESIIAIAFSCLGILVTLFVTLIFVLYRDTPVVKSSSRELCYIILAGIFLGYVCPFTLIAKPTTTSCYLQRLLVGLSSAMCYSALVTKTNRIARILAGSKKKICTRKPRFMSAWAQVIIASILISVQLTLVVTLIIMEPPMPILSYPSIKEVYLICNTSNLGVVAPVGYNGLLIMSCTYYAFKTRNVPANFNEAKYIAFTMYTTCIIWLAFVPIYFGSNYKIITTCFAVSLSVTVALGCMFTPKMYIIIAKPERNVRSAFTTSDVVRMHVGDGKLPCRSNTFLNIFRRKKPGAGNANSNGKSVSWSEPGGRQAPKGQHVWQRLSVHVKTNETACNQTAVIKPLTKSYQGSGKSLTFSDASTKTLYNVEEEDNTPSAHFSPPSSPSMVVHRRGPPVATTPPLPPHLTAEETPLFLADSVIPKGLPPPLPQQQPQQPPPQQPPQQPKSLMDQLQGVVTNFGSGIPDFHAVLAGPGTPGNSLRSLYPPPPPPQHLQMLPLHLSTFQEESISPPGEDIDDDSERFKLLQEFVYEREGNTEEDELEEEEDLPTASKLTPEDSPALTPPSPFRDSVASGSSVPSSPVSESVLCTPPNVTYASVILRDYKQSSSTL", "assay": "Fura-2 Ca2+ imaging in HEK293 cells expressing mGlu1(N264H)", "assay_type": "cell-based", "details": "10 µM LY367385, 1 µM FITM, 10 µM YM254890 or 1 µM U73122"}, "primary cortical neurons": {"test_system": "primary cortical neurons", "assay": "Fura-2 Ca2+ imaging (abnormal Ca2+ response) in cultured cortical neurons", "details": "co-treated 30 µM LY367385, 1 µM FITM or 10 µM U73122"}, "mGlu1 P58H/N264H mutant": {"target": "T2, mGlu1 P58H/N264H mutant (Rattus norvegicus, UniProt P23385, N264H/P58H)", "T2 construct": "expressed in transfected cells; host or cells: HEK293", "T2 sequence (P23385 19-1199 P58H/N264H)": "as the sequence (P23385 19-1199 N264H) above, with P40H counted along it", "assay": "Fura-2 Ca2+ imaging in HEK293 cells expressing mGlu1 P58H/N264H", "assay_type": "cell-based", "details": "for Δratio of 3 µM Pd(bpy)-induced response, ave / Δratio of 10 µM glutamate-induced response, ave: n = 20"}}}
{"smiles": "COc1ccc2c(c1)CC[C@@H]1[C@@H]2CC[C@]2(C)[C@@H](NCCCCCCN3C(=O)C=CC3=O)CC[C@@H]12", "note": "[U73122, reference compound]", "values": [{"measurement": "Effect of pre-treated inhibitor on 10 µM Pd(bpy)-induced Ca2+ responses", "setting": "mGlu1(N264H) mutant", "value": "suppressed"}, {"measurement": "Effect of inhibitor on 30 µM Pd(bpy)-induced [Ca2+]i elevation", "setting": "primary cortical neurons", "value": "suppressed by neither"}]}
{"smiles": "Cc1cc(C(=O)O)ccc1[C@H](N)C(=O)O", "note": "[LY367385, reference compound]", "values": [{"measurement": "Effect on Pd(bpy)-induced Ca2+ responses", "setting": "mGlu1 P58H/N264H mutant; 10 μM LY367385, 3 µM Pd(bpy)", "value": "inhibited"}, {"measurement": "Δratio of 3 µM Pd(bpy)-induced response, ave", "setting": "mGlu1 P58H/N264H mutant; [LY367385] 0.1 µM", "value": 0.1859}, {"measurement": "Δratio of 10 µM glutamate-induced response, ave", "setting": "mGlu1 P58H/N264H mutant; [LY367385] 0.1 µM", "value": 0.243}, {"measurement": "Δratio of 3 µM Pd(bpy)-induced response, ave", "setting": "mGlu1 P58H/N264H mutant; [LY367385] 0.3 µM", "value": 0.1915}, {"measurement": "Δratio of 10 µM glutamate-induced response, ave", "setting": "mGlu1 P58H/N264H mutant; [LY367385] 0.3 µM", "value": 0.2897}, {"measurement": "Δratio of 3 µM Pd(bpy)-induced response, ave", "setting": "mGlu1 P58H/N264H mutant; [LY367385] 1 µM", "value": 0.262}, {"measurement": "Δratio of 10 µM glutamate-induced response, ave", "setting": "mGlu1 P58H/N264H mutant; [LY367385] 1 µM", "value": 0.3662}, {"measurement": "Δratio of 3 µM Pd(bpy)-induced response, ave", "setting": "mGlu1 P58H/N264H mutant; [LY367385] 3 µM", "value": 0.1837}, {"measurement": "Δratio of 10 µM glutamate-induced response, ave", "setting": "mGlu1 P58H/N264H mutant; [LY367385] 3 µM", "value": 0.2021}, {"measurement": "Δratio of 3 µM Pd(bpy)-induced response, ave", "setting": "mGlu1 P58H/N264H mutant; [LY367385] 10 µM", "value": 0.007225}, {"measurement": "Δratio of 10 µM glutamate-induced response, ave", "setting": "mGlu1 P58H/N264H mutant; [LY367385] 10 µM", "value": 0.09778}, {"measurement": "Δratio of 3 µM Pd(bpy)-induced response, ave", "setting": "mGlu1 P58H/N264H mutant; [LY367385] 30 µM", "value": 0.008008}, {"measurement": "Δratio of 10 µM glutamate-induced response, ave", "setting": "mGlu1 P58H/N264H mutant; [LY367385] 30 µM", "value": 0.0409}, {"measurement": "Δratio of 3 µM Pd(bpy)-induced response, ave", "setting": "mGlu1 P58H/N264H mutant; [LY367385] 100 µM", "value": 0.01163}, {"measurement": "Δratio of 10 µM glutamate-induced response, ave", "setting": "mGlu1 P58H/N264H mutant; [LY367385] 100 µM", "value": 0.05699}, {"measurement": "Effect on glutamate-induced Ca2+ responses", "setting": "mGlu1 P58H/N264H mutant; pretreatment with LY367385, 10 µM glutamate", "value": "suppressed"}, {"measurement": "Effect of pre-treated inhibitor on 10 µM Pd(bpy)-induced Ca2+ responses", "setting": "mGlu1(N264H) mutant", "value": "inhibited"}, {"measurement": "Effect of inhibitor on 30 µM Pd(bpy)-induced [Ca2+]i elevation", "setting": "primary cortical neurons", "value": "suppressed by neither"}]}
